Laboratory results from ChEMBL document CHEMBL6115002, “Discovery of novel sitolactone derivative leading to PANoptosis and differentiation of acute myeloid leukemia cells” (Eur J Med Chem, 2025).
Activity calls are given as the source filed them. No cut-off for these calls is given here.

Tests used:
[1] = Antiproliferative activity against mouse WEHI-3 cells assessed as inhibition cell proliferation incubated for 72 hrs by MTT assay; format: functional, cell-based; conditions: WEHI-3, 72 h
[2] = test system: Kasumi 1; test: Antiproliferative activity against human Kasumi 1 cells assessed as inhibition cell proliferation incubated for 72 hrs by MTT assay; format: functional, cell-based; conditions: Kasumi 1, 72 h
[3] = test system: MV4-11; test: Antiproliferative activity against human MV4-11 cells assessed as inhibition cell proliferation incubated for 72 hrs by MTT assay; format: functional, cell-based; conditions: MV4-11, 72 h
[4] = Permeability of compound in human Caco-2 cells; format: ADME, cell-based
[5] = test system: HCT-116; test: Inhibition of tumor sphere formation in human HCT-116 cells at 1.25 uM incubated for 24 hrs; format: functional, cell-based
[6] = test system: HCT-116; test: Anti-cancer activity against human HCT-116 cells assessed as reduction in number of spheroids incubated for 24 hrs; format: functional, cell-based
[7] = test system: HL-60; test: Antiproliferative activity against human HL-60 cells assessed as inhibition of cell proliferation incubated for 72 hrs by CCK-8 assay; format: functional, cell-based; conditions: HL-60, 72 h
[8] = test system: MOLM-13; test: Antiproliferative activity against human MOLM-13 cells assessed as inhibition of cell proliferation incubated for 72 hrs by CCK-8 assay; format: functional, cell-based; conditions: MOLM-13, 72 h
[9] = test system: Z-138; test: Antiproliferative activity against human Z138 cells assessed as inhibition of cell proliferation incubated for 72 hrs by CCK-8 assay; format: functional, cell-based; conditions: Z-138, 72 h
[10] = test system: NCI-H460; test: Antiproliferative activity against human NCI-H460 cells assessed as inhibition of cell proliferation incubated for 72 hrs by CCK-8 assay; format: functional, cell-based; conditions: NCI-H460, 72 h
[11] = test system: Calu-1; test: Antiproliferative activity against human Calu-1 cells assessed as inhibition of cell proliferation incubated for 72 hrs by CCK-8 assay; format: functional, cell-based; conditions: Calu-1, 72 h
[12] = test system: RKO; test: Antiproliferative activity against human RKO cells assessed as inhibition of cell proliferation incubated for 72 hrs by CCK-8 assay; format: functional, cell-based
[13] = test system: BXPC-3; test: Antiproliferative activity against human BXPC-3 cells assessed as inhibition of cell proliferation incubated for 72 hrs by CCK-8 assay; format: functional, cell-based; conditions: BXPC-3, 72 h
[14] = test system: SW1990; test: Antiproliferative activity against human SW1990 cells assessed as inhibition of cell proliferation incubated for 72 hrs by CCK-8 assay; format: functional, cell-based; conditions: SW1990, 72 h
[15] = test system: Kasumi 1; test: Inhibition of colony formation in human Kasumi 1 cells incubated for 15 days by crystal violet staining based analysis; format: functional, cell-based; conditions: dose 0.5-1 µM, time 15.0 day
[16] = Induction of cell cycle arrest in mouse WEHI-3 cells assessed as increase in accumulation of cells at G2 phase at 0.25 uM incubated for 24 hrs by propidium iodide staining based flow cytometric analysis (reference value: 1.85%); format: functional
[17] = Induction of cell cycle arrest in mouse WEHI-3 cells assessed as increase in accumulation of cells at G2 phase at 1 uM incubated for 24 hrs by propidium iodide staining based flow cytometric analysis (reference value: 1.85%); format: functional
[18] = Induction of cell cycle arrest in mouse WEHI-3 cells assessed as increase in accumulation of cells at S phase at 0.25 uM incubated for 24 hrs by propidium iodide staining based flow cytometric analysis (reference value: 51.22%); format: functional
[19] = Induction of cell cycle arrest in mouse WEHI-3 cells assessed as increase in accumulation of cells at S phase at 1 uM incubated for 24 hrs by propidium iodide staining based flow cytometric analysis (reference value: 51.22%); format: functional
[20] = test system: Kasumi 1; test: Induction of cell cycle arrest in human Kasumi 1 cells assessed as increase in accumulation of cells at G1 phase at 0.5 uM incubated for 24 hrs by propidium iodide staining based flow cytometric analysis (reference value: 50.41%); format: functional
[21] = test system: Kasumi 1; test: Induction of cell cycle arrest in human Kasumi 1 cells assessed as increase in accumulation of cells at G1 phase at 1 uM incubated for 24 hrs by propidium iodide staining based flow cytometric analysis (reference value: 50.41%); format: functional
[22] = test system: Kasumi 1; test: Induction of cell cycle arrest in human Kasumi 1 cells assessed as increase in accumulation of cells at G2 phase at 1 uM incubated for 24 hrs by propidium iodide staining based flow cytometric analysis (reference value: 9.82%); format: functional
[23] = test system: Kasumi 1; test: Induction of cell cycle arrest in human Kasumi 1 cells assessed as increase in accumulation of cells at S phase at 0.25 uM incubated for 24 hrs by propidium iodide staining based flow cytometric analysis (reference value: 39.77%); format: functional
[24] = test system: Kasumi 1; test: Induction of cell cycle arrest in human Kasumi 1 cells assessed as increase in accumulation of cells at S phase at 0.5 uM incubated for 24 hrs by propidium iodide staining based flow cytometric analysis (reference value: 39.77%); format: functional
[25] = test system: Kasumi 1; test: Induction of cell cycle arrest in human Kasumi 1 cells assessed as increase in accumulation of cells at S phase at 1 uM incubated for 24 hrs by propidium iodide staining based flow cytometric analysis (reference value: 39.77%); format: functional
[26] = test system: Kasumi 1; test: Induction of cell cycle arrest in human Kasumi 1 cells assessed as increase in P53 level at 0.15 to 1.2 uM incubated for 24 hrs by Western blotting analysis; format: functional, cell-based; conditions: dose 0.15-1.2 µM
[27] = test system: WEHI-3; test: Induction of cell differentiation in mouse WEHI-3 cells assessed as increase in CD11B expression by Western blotting analysis; format: functional, cell-based; conditions: dose 0.125-1 µM
[28] = test system: WEHI-3; test: PANoptosis in mouse WEHI-3 cells assessed as cell death at 1.2 uM incubated for 72 hrs by optical microscopic analysis; format: functional, cell-based
[29] = test system: Kasumi 1; test: Induction of apoptosis in human Kasumi 1 cells assessed as increase in cleaved PARP-1 level incubated for 72 hrs by Western blotting analysis; format: functional, cell-based; conditions: dose 0.625-5 µM
[30] = test system: Kasumi 1; test: Induction of pyroptosis in human Kasumi 1 cells assessed as effect on cleaved N-GSDMB at 0.6 to 2.5 uM incubated for 24 hrs by Western blotting analysis; format: functional, cell-based; conditions: dose 0.6-2.5 µM
[31] = test system: WEHI-3; test: Induction of pyroptosis in mouse WEHI-3 cells assessed as increase in p-RIPK3 level at 0.625 to 5 uM incubated for 72 hrs by Western blotting analysis; format: functional, cell-based; conditions: dose 0.625-5 µM
[32] = test system: Kasumi 1; test: Induction of […] in human Kasumi 1 cells assessed as increase in p-RIPK3 level at 0.625 to 5 uM incubated for 72 hrs by Western blotting analysis; format: functional, cell-based; conditions: dose 0.625-5 µM
[33] = test system: Kasumi 1; test: Disruption of citrate metabolic pathway in human Kasumi 1 cells by KEGG enrichment analysis; format: functional, cell-based
[34] = test system: Kasumi 1; test: Disruption of carbon metabolic pathway in human Kasumi 1 cells by KEGG enrichment analysis; format: functional, cell-based
[35] = test system: WEHI-3; test: Antitumor activity against mouse WEHI-3 cells implanted in Balb/c mouse assessed as reduction in liver metastasis at 1 mg/kg, po administered daily for 15 days by H and E staining based analysis; format: functional, organism-based; conditions: time 15.0 day
[36] = Toxicity in Balb/c mouse implanted with mouse WEHI-3 cells assessed as separation between white and red pulp area in spleen at 100 to 200 mg/kg, po administered (4aR,6aS,7S,9aS,9bS)-2-(((S)-2-(hydroxymethyl)pyrrolidin-1-yl)methyl)-6a-methyl7 ((triisopropylsilyl)oxy)decahydrocyclopenta[f]chromen-3(2H)-one as prodrug once daily and measured after 15 days; format: organism-based; conditions: in vivo, 360 h, dose 100-200 mg/kg, time 15 day

Which results are given for `C=C1C[C@@H]2[C@@H](CC[C@]3(C)[C@@H](O[Si](C(C)C)(C(C)C)C(C)C)CC[C@@H]23)OC1=O`?
IC50 [1]: 420 nM; IC50 [2]: 570 nM; IC50 [3]: 1750 nM; permeability [4]: Permeable; inhibition [5]: Active; Activity [6]: Active; IC50 [7]: 900 nM; IC50 [8]: 1530 nM; IC50 [9]: 1880 nM; IC50 [10]: 2820 nM; IC50 [11]: 3600 nM; IC50 [12]: 2070 nM; IC50 [13]: > 10000 nM; IC50 [14]: > 10000 nM; inhibition [15]: Dose-dependent-effect; Activity [16]: 1.76%; Activity [17]: 3.39%; Activity [18]: 46.46%; Activity [19]: 32.07%; Activity [20]: 53.53%; Activity [21]: 58.52%; Activity [22]: 18.95%; Activity [23]: 36.36%; Activity [24]: 31.64%; Activity [25]: 22.53%; Activity [26]: Active; Activity [27]: Dose-dependent-effect; Activity [28]: Active; Activity [29]: Dose-dependent-effect; Activity [30]: Active; Activity [31]: Active; Activity [32]: Active; Activity [33]: Active; Activity [34]: Active; Activity [35]: Active; Activity [36]: Non-toxic
